In US12011506B2, “Combination and uses and treatments thereof” (priority 2017, dated 2024):

What was measured:
[1] = Solubilities of non-micronized dolutegravir sodium in various solvents at 25° C.; type: physicochemical
[2] = Pre-dose concentrations of DTG and RPV at Weeks 4, 24 and 48 or withdrawal in participants switching to DTG + RPV; type: in vivo, human
Method: (§1) First set of participants (DTG 50 mg) received DIG 50 mg+RPV 25 mg together once daily, with a meal, in an open-label fashion up to Week 52 during early switch phase. Second set of participants (RPV 25 mg) also received DTG 50 mg+RPV 25 mg together once daily, with a meal, in an open-label fashion up to Week 52 during early switch phase.
(§2) First set of participants (DTG 50 mg) received DTG 50 mg+RPV 25 mg together once daily, with a meal, in an open-label fashion up to Week 52 during early switch phase. Second set of participants (RPV 25 mg) also received DTG 50 mg+RPV 25 mg together once daily, with a meal, in an open-label fashion up to Week 52 during early switch phase.

[3] = Pre-dose concentrations of DTG and RPV at Weeks 2, 4 and 8 in the first 20 participants who switch from EFV or NVP to DTG + RPV; type: in vivo, human
Method: as §1, §2

[4] = human, in vivo
[5] = Drug interaction trials: effect of rilpivirine on pharmacokinetics of coadministered drugs; conditions: No Effect = 1.00
[6] = Drug interaction trials: effect of dolutegravir on pharmacokinetics of coadministered drugs
From the text: (§3) These recommendations are based on either drug interaction trials of individual components or predicted interactions due to the expected magnitude of interaction and potential for serious adverse events or loss of efficacy.

[7] = Established and other potentially significant drug interactions with JULUCA (effect on concentration); type: in vivo, human; conditions: based on drug interaction trials or predicted interactions
From the text: as §3

[8] = Solubilities of rilpivirine hydrochloride in various aqueous media; type: physicochemical
[9] = Drug interaction trials: effect of coadministered drugs on pharmacokinetics of dolutegravir; type: in vivo, human
From the text: as §3

[10] = metformin 500 mg twice daily, dolutegravir 50 mg once daily
[11] = metformin 500 mg twice daily, dolutegravir 50 mg twice daily
[12] = coadministered drug 2 h after dolutegravir 50 mg single dose
[13] = simultaneous administration (fasted), dolutegravir 50 mg single dose
[14] = simultaneous administration (fed), dolutegravir 50 mg single dose

## C[C@@H]1CCO[C@H]2Cn3cc(C(=O)NCc4ccc(F)cc4F)c(=O)c([O-])c3C(=O)N12.[Na+] [dolutegravir sodium, sodium (4R,12aS)-9-{[(2,4-difluorophenyl)methyl]carbamoyl}-4-methyl-6,8-dioxo-3,4,6,8,12,12a-hexahydro-2H-pyrido[1′,2′:4,5]pyrazino[2,1-b][1,3]oxazin-7-olate]
[1]; FaSSIF, pH 6.5, 25° C.
  Descriptor (solubility): Very slightly soluble
[1]; FaSSIF, pH 6.5, 25° C., listed as Non-micronized dolutegravir sodium
  Descriptor (solubility): very slightly soluble
[1]; FeSSIF, pH 5.0, 25° C.
  Descriptor (solubility): Very slightly soluble
[1]; FeSSIF, pH 5.0, 25° C., listed as Non-micronized dolutegravir sodium
  Descriptor (solubility): very slightly soluble
[1]; SGF, pH 1.2, 25° C.
  Descriptor (solubility): Practically insoluble
[1]; SGF, pH 1.2, 25° C., listed as Non-micronized dolutegravir sodium
  Descriptor (solubility): practically insoluble
[1]; Water, solution pH 10.1, 25° C.
  Descriptor (solubility): Slightly soluble
[1]; Water, solution pH 10.1, 25° C., listed as Dolutegravir sodium
  Descriptor (solubility): slightly soluble
[1]; simulated gastric fluid, thermodynamic from solid, SGF, pH 1.2, 25° C., 8 hours
  solubility at 8 h: 21 µg/mL
[1]; thermodynamic from solid, FaSSIF, pH 6.5, 25° C., 4 hours
  solubility at 4 h: 239 µg/mL
[1]; thermodynamic from solid, FeSSIF, pH 5.0, 25° C., 4 hours
  solubility at 4 h: 170 µg/mL
[1]; thermodynamic from solid, Water, solution pH 10.1, 25° C., equilibrium after 4 hours
  solubility at 4 h: 3180 µg/mL
[2]; Example 3 (Table 10), Week 4
  Pre-dose concentration, Mean ± Standard Deviation: 1581.06 ± 1146.860 µg/L
[2]; Example 3 (Table 10), Week 24
  Pre-dose concentration, Mean ± Standard Deviation: 1835.68 ± 1120.539 µg/L
[2]; Example 3 (Table 10), Week 48
  Pre-dose concentration, Mean ± Standard Deviation: 1915.11 ± 1304.238 µg/L
[2]; Example 5 (Table 13), Week 4
  Pre-dose concentration, Mean ± Standard Deviation: 1578.88 ± 1170.967 µg/L
[2]; Example 5 (Table 13), Week 24
  Pre-dose concentration, Mean ± Standard Deviation: 1447.23 ± 917.677 µg/L
[2]; Example 5 (Table 13), Week 48
  Pre-dose concentration, Mean ± Standard Deviation: 1384.36 ± 889.829 µg/L
[3]; Example 3 (Table 10), Week 2
  Pre-dose concentration, Mean ± Standard Deviation: 821.25 ± 574.607 µg/L
[3]; Example 3 (Table 10), Week 4
  Pre-dose concentration, Mean ± Standard Deviation: 994.00 ± 581.201 µg/L
[3]; Example 3 (Table 10), Week 8
  Pre-dose concentration, Mean ± Standard Deviation: 1561.34 ± 1096.381 µg/L
[3]; Example 5 (Table 13), Week 2
  Pre-dose concentration, Mean ± Standard Deviation: 834.58 ± 639.622 µg/L
[3]; Example 5 (Table 13), Week 4
  Pre-dose concentration, Mean ± Standard Deviation: 1218.23 ± 842.703 µg/L
[3]; Example 5 (Table 13), Week 8
  Pre-dose concentration, Mean ± Standard Deviation: 1472.50 ± 818.774 µg/L

## C#C[C@]1(O)CC[C@H]2[C@@H]3CCC4=CC(=O)CC[C@@H]4[C@H]3CC[C@@]21C [Norethindrone]
[4]
  AUC of coadministered drug, geometric mean ratio with/without EDURANT: 0.89
  Cmax of coadministered drug, geometric mean ratio with/without EDURANT: 0.94
[5]
  Cmin of coadministered drug, geometric mean ratio with/without EDURANT: 0.99

## CN(C)C(=N)N=C(N)N [Metformin]
[4]
  AUC of coadministered drug, geometric mean ratio with/without EDURANT: 0.97
  Cmax of coadministered drug, geometric mean ratio with/without EDURANT: 1.02
[6]; [10]
  AUC of coadministered drug, geometric mean ratio with/without dolutegravir: 1.79
  Cmax of coadministered drug, geometric mean ratio with/without dolutegravir: 1.66
[6]; [11]
  AUC of coadministered drug, geometric mean ratio with/without dolutegravir: 2.45
  Cmax of coadministered drug, geometric mean ratio with/without dolutegravir: 2.11
[7]
  Effect on Concentration of the concomitant drug: ↑Metformin

## Cc1cc(/C=C/C#N)cc(C)c1Nc1ccnc(Nc2ccc(C#N)cc2)n1.Cl [rilpivirine hydrochloride, 4-[[4-[[4-[(E)-2-cyanoethenyl]-2,6-dimethylphenyl]amino]-2-pyrimidinyl]amino]benzonitrile hydrochloride]
[2]; Example 3 (Table 10), Week 4
  Pre-dose concentration, Mean ± Standard Deviation: 92.046 ± 138.2880 µg/L
[2]; Example 3 (Table 10), Week 24
  Pre-dose concentration, Mean ± Standard Deviation: 87.875 ± 39.1412 µg/L
[2]; Example 3 (Table 10), Week 48
  Pre-dose concentration, Mean ± Standard Deviation: 95.405 ± 48.2978 µg/L
[2]; Example 5 (Table 13), Week 4
  Pre-dose concentration, Mean ± Standard Deviation: 79.504 ± 38.2305 µg/L
[2]; Example 5 (Table 13), Week 24
  Pre-dose concentration, Mean ± Standard Deviation: 90.207 ± 46.3022 µg/L
[2]; Example 5 (Table 13), Week 48
  Pre-dose concentration, Mean ± Standard Deviation: 91.799 ± 47.1371 µg/L
[3]; Example 3 (Table 10), Week 2
  Pre-dose concentration, Mean ± Standard Deviation: 65.360 ± 31.2965 µg/L
[3]; Example 3 (Table 10), Week 4
  Pre-dose concentration, Mean ± Standard Deviation: 67.374 ± 27.5663 µg/L
[3]; Example 3 (Table 10), Week 8
  Pre-dose concentration, Mean ± Standard Deviation: 77.416 ± 37.7129 µg/L
[3]; Example 5 (Table 13), Week 2
  Pre-dose concentration, Mean ± Standard Deviation: 57.342 ± 29.5436 µg/L
[3]; Example 5 (Table 13), Week 4
  Pre-dose concentration, Mean ± Standard Deviation: 78.338 ± 31.4825 µg/L
[3]; Example 5 (Table 13), Week 8
  Pre-dose concentration, Mean ± Standard Deviation: 79.652 ± 40.7546 µg/L
[8]; 0.01N HCl, pH 2.0
  Descriptor (solubility): Practically insoluble (Practically insoluble or Insoluble: Parts of solvent required for 1 part of solute: greater than or equal to 10,000)
[8]; 0.01N HCl, pH 2.0, 20° C.
  Solubility: 0.003 g/100 mL
[8]; 0.1N HCl, pH 1.1
  Descriptor (solubility): Practically insoluble (Practically insoluble or Insoluble: Parts of solvent required for 1 part of solute: greater than or equal to 10,000)
[8]; 0.1N HCl, pH 1.1, 20° C.
  Solubility: <0.001 g/100 mL
[8]; 0.1N NaOH, pH 12.9
  Descriptor (solubility): Practically insoluble (Practically insoluble or Insoluble: Parts of solvent required for 1 part of solute: greater than or equal to 10,000)
[8]; 0.1N NaOH, pH 12.9, 20° C.
  Solubility: <0.001 g/100 mL
[8]; Borate-KCl, pH 8.9
  Descriptor (solubility): Practically insoluble (Practically insoluble or Insoluble: Parts of solvent required for 1 part of solute: greater than or equal to 10,000)
[8]; Borate-KCl, pH 8.9, 20° C.
  Solubility: <0.001 g/100 mL
[8]; Citrate-HCl, pH 2.0
  Descriptor (solubility): Practically insoluble (Practically insoluble or Insoluble: Parts of solvent required for 1 part of solute: greater than or equal to 10,000)
[8]; Citrate-HCl, pH 2.0, 20° C.
  Solubility: <0.001 g/100 mL
[8]; Citrate-NaOH, pH 5.0
  Descriptor (solubility): Practically insoluble (Practically insoluble or Insoluble: Parts of solvent required for 1 part of solute: greater than or equal to 10,000)
[8]; Citrate-NaOH, pH 5.0, 20° C.
  Solubility: <0.001 g/100 mL
[8]; Phosphate Buffer, pH 6.9
  Descriptor (solubility): Practically insoluble (Practically insoluble or Insoluble: Parts of solvent required for 1 part of solute: greater than or equal to 10,000)
[8]; Phosphate Buffer, pH 6.9, 20° C.
  Solubility: <0.001 g/100 mL
[8]; Phosphate-NaOH, pH 11.9
  Descriptor (solubility): Practically insoluble (Practically insoluble or Insoluble: Parts of solvent required for 1 part of solute: greater than or equal to 10,000)
[8]; Phosphate-NaOH, pH 11.9, 20° C.
  Solubility: <0.001 g/100 mL
[8]; Water, solution pH 2.2
  Descriptor (solubility): Practically insoluble (Practically insoluble or Insoluble: Parts of solvent required for 1 part of solute: greater than or equal to 10,000)
[8]; Water, solution pH 2.2, 20° C.
  Solubility: 0.001 g/100 mL
[8]; aqueous media (Table 16)
  Descriptor (solubility): practically insoluble

## O=C([O-])/C=C/C(=O)[O-].[Fe+2] [Ferrous fumarate]
[9]; [12]
  Dolutegravir AUC, geometric mean ratio with/without coadministered drug: 0.95
  Dolutegravir Cmax, geometric mean ratio with/without coadministered drug: 0.99
  Dolutegravir Cτ or C24, geometric mean ratio with/without coadministered drug: 0.92
[9]; [13]
  Dolutegravir AUC, geometric mean ratio with/without coadministered drug: 0.46
  Dolutegravir Cmax, geometric mean ratio with/without coadministered drug: 0.43
  Dolutegravir Cτ or C24, geometric mean ratio with/without coadministered drug: 0.44
[9]; [14]
  Dolutegravir AUC, geometric mean ratio with/without coadministered drug: 0.98
  Dolutegravir Cmax, geometric mean ratio with/without coadministered drug: 1.03
  Dolutegravir Cτ or C24, geometric mean ratio with/without coadministered drug: 1.00

## O=C([O-])[O-].[Ca+2] [Calcium carbonate]
[9]; [12]
  Dolutegravir AUC, geometric mean ratio with/without coadministered drug: 0.94
  Dolutegravir Cmax, geometric mean ratio with/without coadministered drug: 1.00
  Dolutegravir Cτ or C24, geometric mean ratio with/without coadministered drug: 0.90
[9]; [13]
  Dolutegravir AUC, geometric mean ratio with/without coadministered drug: 0.61
  Dolutegravir Cmax, geometric mean ratio with/without coadministered drug: 0.63
  Dolutegravir Cτ or C24, geometric mean ratio with/without coadministered drug: 0.61
[9]; [14]
  Dolutegravir AUC, geometric mean ratio with/without coadministered drug: 1.09
  Dolutegravir Cmax, geometric mean ratio with/without coadministered drug: 1.07
  Dolutegravir Cτ or C24, geometric mean ratio with/without coadministered drug: 1.08

## COC(=O)N[C@H](C(=O)N1CCC[C@H]1c1nc(-c2ccc(-c3ccc(-c4c[nH]c([C@@H]5CCCN5C(=O)[C@@H](NC(=O)OC)C(C)C)n4)cc3)cc2)c[nH]1)C(C)C [Daclatasvir]
[6]; No Effect = 1.00
  Cmax of coadministered drug, geometric mean ratio with/without dolutegravir: 1.03
  Cτ or C24 of coadministered drug, geometric mean ratio with/without dolutegravir: 1.06

## C#C[C@]1(O)CC[C@H]2[C@@H]3CCC4=CC(=NO)CC[C@@H]4[C@H]3CC[C@@]21CC (mixture of isomers) [Norelgestromin]
[6]; No Effect = 1.00
  Cmax of coadministered drug, geometric mean ratio with/without dolutegravir: 0.89
  Cτ or C24 of coadministered drug, geometric mean ratio with/without dolutegravir: 0.93
